Assay results reported in patent publication US20050209157A1, “Short bioactive peptides and methods for their use” (priority 2001, published 2005).
Converted amounts (≈) assume the structure as drawn. Where two headings read alike, the source gives them in different places. Non-standard residues stand in square brackets, D forms with d. Residues, ends and D or L forms follow the SMILES beside them. No end group written: not given here.

Assays:
Escherichia coli 25922 = assay: microbe, parasite or virus in culture
Text: Synergy between peptide Shiva-10 (SEQ ID NO:4) and various antimicrobial agents was investigated against Escherichia coli 25922.
Synergy between tetracycline and various peptides was investigated against Escherichia coli 25922 MBC. […] When combined with the peptides, the concentration of tetracycline was held at 1.5 ppm.

[1] = tested on: Pseudomonas aeruginosa ATCC 27853; assay: Antimicrobial assay I, modified protocol (tryptic soy broth), MBC; conditions: minimum bactericidal concentration, Table 4
Method: (§1) The preparation of all media, stock solutions, and dilutions took place in a laminar flow hood to prevent contamination. Bacterial cells were freshly grown on antibiotic medium 2 agar slants (pH 7.0 at 25° C.). Bacteria were suspended and diluted in antibiotic medium 3 to about 10^4 cfu/ml and used as the inoculum. Sample solutions (100 μl/well) were added to plates according to the plate layout. Inoculum (100 μl/well) was added to achieve a final concentration of 5×10^3 cfu/ml. Negative controls received 100 μl saline and 100 μl growth medium. Positive controls received 100 μl saline and 100 μl inoculum. Bacterial plates were incubated at 37° C. for 24 hours.
(§2) However, the data for Table 4 were obtained with a modified protocol wherein the medium was tryptic soy broth, inocolum strength was approximately 10^4 CFU per ml, and values determined were minimum bactericidal concentrations (MBC) or minimum fungicidal concentrations (MFC).
(§3) MBC or MFC values are in μg/mL. E. coli is Escherichia coli ATCC accession number 25922; P. aerug is Pseudomonas aeruginosa ATCC accession number 27853, S. aur. is Stapholococcus aureus ATCC accession number 25923; Candida is Candida albicans ATCC accession number 10231.

[2] = tested on: Escherichia coli ATCC 25922; assay: as above; conditions: minimum bactericidal concentration, Table 4
in vitro [3] = conditions: human, WI38 normal lung fibroblast cells, WI-38 LD50, Table 26, valine substitution
Method: (§4) Viability of cells is determined by the dye response. In the following procedure, approximately 1.5×10^4 cells per well were added and viability was determined with the cells in a semi-confluent state. The assay was performed in a 96-well microtiter plate. After addition of peptide, the plate was set for 24 hours. MTT (5 mg/ml in phenol red-free RPMI-1640, 20 μl) was added to each well including positive control wells untreated with peptide. The plate was incubated at 37° C. for 4 hours. The liquid contents of each well was removed, and isopropanol with 0.1 M HCl (100 μl) was added to each well. The plate was sealed with parafilm to prevent evaporation of the isopropanol. The plate is allowed to rest for 5-10 minutes in order to solubilize the precipitate. Purified water (100 μl) was added to each well. Absorbance was determined with an ELISA Reader instrument. Color intensity at 540 nm is proportional to viability of cells.
(§5) WI38 (ATCC No. CCL75) is a normal fibroblast line of lung diploid cells, MCF7 (ATCC No. HTB22) is a breast adenocarcinoma tumor cell line, SW480 (ATCC No. CCL228) is a colon adenocarcinoma tumor cell line, BMKC is a cloned melanoma line derived from Bowes melanoma line HMCB (ATCC No. CRL9607), H1299 (ATCC No. CRL5803) is a lung large cell carcinoma tumor line, HeLaS3 (ATCC No. CCL2.2) is a cervical epitheleal carcinoma tumor cell line, and PC3 (ATCC No. CRL1435) is a prostate adenocarcinoma tumor cell line.

[4] = tested on: Candida albicans ATCC 10231; assay: Antimicrobial assay I, modified protocol (tryptic soy broth), MFC; conditions: minimum fungicidal concentration, Table 4
Method: as §1, §2, §3

[5] = tested on: Stapholococcus aureus ATCC 25923; assay: Antimicrobial assay I, modified protocol (tryptic soy broth), MBC; conditions: minimum bactericidal concentration, Table 4
cancer cell lines = assay: Anti-cancer assays, MTT, summary over the cancer cell lines; type: cell-based; conditions: X = preferred
in vitro [6] = type: cell-based, human; conditions: human, human red blood cells
[7] = tested on: Pseudomonas aeruginosa ATCC 9027; assay: Antimicrobial assay I, MIC by OD measurement; type: cell-based
[8] = tested on: human red blood cells (RBC); assay: in vitro; type: cell-based; conditions: Table 27
fungal = assay: Presently preferred antifungal peptides, selected from the MIC/MBC data; type: cell-based; conditions: X = preferred
Text: The peptide's “length” is the number of amino acid residues in the sequence.

WI38 = conditions: Table 27
Method: as §4, §5

[9] = tested on: MCF7 line of breast cancer cells
[10] = pH 7, Table 26, valine substitution, read-out: Hemolysis RBC LD50
[11] = pH 7, Table 27, read-out: Hemolysis (LD50)

| Molecule | MBC P. aerug A.27853 [1] [µg/mL] | MBC E. coli A.25922 [2] [µg/mL] | CC50 at 24 h (in vitro [3]) [µg/mL] | MFC Candida A.10231 [4] [µg/mL] | MBC S. aur A.25923 [5] [µg/mL] | Anti-cancer (preferred peptide) (cancer cell lines) | HC50 at 1 h (in vitro [6]; [10]) [µg/mL] | Anti-fungal (preferred peptide) (fungal) | also measured |
| --- | --- | --- | --- | --- | --- | --- | --- | --- | --- |
| NC[C@@H]1O[C@H](O[C@H]2[C@@H](O)[C@H](O[C@@H]3[C@@H](O)[C@H](N)C[C@H](N)[C@H]3O[C@H]3O[C@H](CN)[C@@H](O)[C@H](O)[C@H]3N)O[C@@H]2CO)[C@H](N)[C@@H](O)[C@@H]1O [Neomycin] | – | – | – | – | – | – | – | – | MBC, Without peptide (Escherichia coli 25922; agent alone): 100 µg/mL; MBC, With peptide (Escherichia coli 25922; with 5 μg/mL peptide Shiva-10): 5 µg/mL |
| FALALKALKKLKKALKKAL-NH2 [FLAK 06AM (P27; SEQ ID NO: 12)] | – | – | – | – | – | – | – | – | MBC, Without tetracycline (Escherichia coli 25922; peptide alone): 75 µg/mL; MBC, With tetracycline (Escherichia coli 25922; tetracycline held at […]): 25 µg/mL |
| CC(C)C[C@H](NC(=O)[C@H](C)NC(=O)[C@H](CC(C)C)NC(=O)[C@H](C)NC(=O)[C@H](CC(C)C)NC(=O)[C@H](CCCCN)NC(=O)[C@H](C)NC(=O)[C@H](CC(C)C)NC(=O)[C@H](CCCCN)NC(=O)[C@H](CCCCN)NC(=O)[C@H](C)NC(=O)[C@H](CC(C)C)NC(=O)[C@H](CCCCN)NC(=O)[C@H](C)NC(=O)[C@H](CC(C)C)NC(=O)[C@H](CCCCN)NC(=O)[C@H](CCCCN)NC(=O)[C@H](C)NC(=O)[C@@H](N)Cc1ccccc1)C(N)=O [compound 36] | 15 (≈ 7.36 µM) | 30 (≈ 14.7 µM) | 19 (≈ 9.32 µM) | >40 | 10 (≈ 4.91 µM) | X (Preferred anticancer peptides can be selected as having LD50 values of less than or equal to about 25 μg/ml) | 12 | – | – |
| FAKLLAKLAKKLL-NH2 [compound 43] | 15 | 8 | 25 | 15 | 4 | X (Preferred anticancer peptides can be selected as having LD50 values of less than or equal to about 25 μg/ml) | 20 | X (Preferred antifungal peptides can be selected as having MIC or MBC values of less than or equal to about 25 μg/ml) | P. aerug (MIC) [7]: 100 µg/mL; Hemolysis (LD50) [8]: 20 µg/mL; WI38 LD50 (WI38): 25 µg/mL |
| FALAKLAKKAKAKLKKALKAL-NH2 [compound 26] | >40 | >80 | – | >50 | >40 | X (Preferred anticancer peptides can be selected as having LD50 values of less than or equal to about 25 μg/ml) | – | X (Preferred antifungal peptides can be selected as having MIC or MBC values of less than or equal to about 25 μg/ml) | – |
| FALALKKALKALKKAL-NH2 [compound 34] | 15 | 15 | – | >40 | 40 | X (Preferred anticancer peptides can be selected as having LD50 values of less than or equal to about 25 μg/ml) | – | X (Preferred antifungal peptides can be selected as having MIC or MBC values of less than or equal to about 25 μg/ml) | – |
| FAKALAKLAKKLL-NH2 [compound 92] | 25 | 40 | – | 25 | 15 | X (Preferred anticancer peptides can be selected as having LD50 values of less than or equal to about 25 μg/ml) | – | X (Preferred antifungal peptides can be selected as having MIC or MBC values of less than or equal to about 25 μg/ml) | – |
| FALALKALKKALKKLKKALKKAL-OH [compound 1] | 30 | 25 | 27 | >50 | 25 | X (Preferred anticancer peptides can be selected as having LD50 values of less than or equal to about 25 μg/ml) | 20 | – | – |
| CC(C)C[C@H](NC(=O)[C@H](C)NC(=O)[C@H](CCCCN)NC(=O)[C@H](CCCCN)NC(=O)[C@H](CC(C)C)NC(=O)[C@H](C)NC(=O)[C@H](CCCCN)NC(=O)[C@H](CCCCN)NC(=O)[C@H](CC(C)C)NC(=O)[C@@H](CCCCN)NC(=O)[C@@H](CCCCN)NC(=O)[C@H](CC(C)C)NC(=O)[C@H](C)NC(=O)[C@H](CCCCN)NC(=O)[C@H](CCCCN)NC(=O)[C@H](CC(C)C)NC(=O)[C@H](C)NC(=O)[C@H](CCCCN)NC(=O)[C@H](CC(C)C)NC(=O)[C@H](C)NC(=O)[C@H](CC(C)C)NC(=O)[C@H](C)NC(=O)[C@@H](N)Cc1ccccc1)C(=O)O [compound 37] (H-FALALKALKKAL[dK][dK]LKKALKKAL-OH; N-terminus assumed) | 8 (≈ 3.15 µM) | 8 (≈ 3.15 µM) | – | >50 | 40 (≈ 15.8 µM) | X (Preferred anticancer peptides can be selected as having LD50 values of less than or equal to about 25 μg/ml) | – | – | – |
| FAKKLAKKLKKLAKKLAKKWKL-NH2 [compound 70] | 30 | 40 | – | >50 | 40 | X (Preferred anticancer peptides can be selected as having LD50 values of less than or equal to about 25 μg/ml) | – | – | – |
| CC/C(=C(\c1ccccc1)c1ccc(OCCN(C)C)cc1)c1ccccc1 [Tamoxifen] | – | – | – | – | – | – | – | – | MCF7 LD50 ([9]; agent alone): 20 µg/mL; Active agent LD50 on MCF7 cells: Total conc. ([9]; peptide plus tamoxifen concentration at LD50): 20 µg/mL; Active agent LD50 on MCF7 cells: Tamox. conc. ([9]; tamoxifen concentration at LD50 (peptide with tamoxifen; tamoxifen alone in its own line)): 20 µg/mL |
| FALALKALKKLKKALKKAL-OH [27B] | 10 | 40 | – | >40 | >40 | X (Preferred anticancer peptides can be selected as having LD50 values of less than or equal to about 25 μg/ml) | – | X (Preferred antifungal peptides can be selected as having MIC or MBC values of less than or equal to about 25 μg/ml) | – |
| FAKLLAKLAKKVL-NH2 [compound 124] | 40 | 10 | 21 | 15 | 8 | X (Preferred anticancer peptides can be selected as having LD50 values of less than or equal to about 25 μg/ml) | 55 | X (Preferred antifungal peptides can be selected as having MIC or MBC values of less than or equal to about 25 μg/ml) | P. aerug (MIC) [7]: 100 µg/mL; HC50 at 1 h (in vitro [6]; [11]): 300 µg/mL; WI38 LD50 (WI38): 21 µg/mL |
| FAKLLAKALKKLL-NH2 [compound 55] | 10 | 4 | 32 | 25 | 4 | X (Preferred anticancer peptides can be selected as having LD50 values of less than or equal to about 25 μg/ml) | 20 | X (Preferred antifungal peptides can be selected as having MIC or MBC values of less than or equal to about 25 μg/ml) | – |
| VAKLLAKLAKKLL-NH2 [compound 48] | 25 | 8 | 160 | 10 | 4 | X (Preferred anticancer peptides can be selected as having LD50 values of less than or equal to about 25 μg/ml) | 130 | X (Preferred antifungal peptides can be selected as having MIC or MBC values of less than or equal to about 25 μg/ml) | P. aerug (MIC) [7]: 5 µg/mL; HC50 at 1 h (in vitro [6]; [11]): 200 µg/mL; WI38 LD50 (WI38): 160 µg/mL |
